Measurements reported in PMC6271077, “Synthesis, Anticancer and Antibacterial Activity of Salinomycin N-Benzyl Amides” (Molecules, 2014).
Values after ≈ are worked out from the molar mass of the structure shown.

Experiments:
[1] = tested on: MRSE 459/11; assay: MIC microdilution, hospital MRSE; type: cell-based; details: Staphylococcus epidermidis; hospital MRSE strain 459/11; read-out: MIC
[2] = tested on: S. epidermidis ATCC 12228; assay: MIC microdilution; type: cell-based; details: Staphylococcus epidermidis, ATCC12228; S. epidermidis ATCC 12228; 18 h, 35 °C; read-out: MIC
[3] = tested on: MRSA 452/11; assay: MIC microdilution, hospital MRSA; type: cell-based; details: Staphylococcus aureus; hospital MRSA strain 452/11; read-out: MIC
[4] = tested on: MRSA 572/12; assay: MIC microdilution, hospital MRSA; type: cell-based; details: Staphylococcus aureus; hospital MRSA strain 572/12; read-out: MIC
[5] = tested on: MRSA 462/11; assay: MIC microdilution, hospital MRSA; type: cell-based; details: Staphylococcus aureus; hospital MRSA strain 462/11; read-out: MIC
[6] = tested on: MRSA 586/12; assay: MIC microdilution, hospital MRSA; type: cell-based; details: Staphylococcus aureus; hospital MRSA strain 586/12; read-out: MIC
[7] = tested on: MRSE 488/11; assay: MIC microdilution, hospital MRSE; type: cell-based; details: Staphylococcus epidermidis; hospital MRSE strain 488/11; read-out: MIC
[8] = tested on: MRSE 467/11; assay: MIC microdilution, hospital MRSE; type: cell-based; details: Staphylococcus epidermidis; hospital MRSE strain 467/11; read-out: MIC
[9] = tested on: MRSE 461/11; assay: MIC microdilution, hospital MRSE; type: cell-based; details: Staphylococcus epidermidis; hospital MRSE strain 461/11; read-out: MIC
[10] = tested on: MRSA 537/12; assay: MIC microdilution, hospital MRSA; type: cell-based; details: Staphylococcus aureus; hospital MRSA strain 537/12; read-out: MIC
[11] = tested on: MRSE 469/11; assay: MIC microdilution, hospital MRSE; type: cell-based; details: Staphylococcus epidermidis; hospital MRSE strain 469/11; read-out: MIC
[12] = tested on: MRSA 522/12; assay: MIC microdilution, hospital MRSA; type: cell-based; details: Staphylococcus aureus; hospital MRSA strain 522/12; read-out: MIC
[13] = tested on: S. aureus ATCC 29213; assay: MIC microdilution; type: cell-based; details: Staphylococcus aureus, ATCC29213; S. aureus ATCC 29213; 18 h, 35 °C; read-out: MIC
[14] = tested on: MRSA; assay: MIC microdilution, MRSA strains overall (range given); type: cell-based, Staphylococcus aureus; details: hospital MRSA strains
[15] = tested on: MRSE 468/11; assay: MIC microdilution, hospital MRSE; type: cell-based; details: Staphylococcus epidermidis; hospital MRSE strain 468/11; read-out: MIC
[16] = tested on: S. aureus ATCC 6538; assay: MIC microdilution; type: cell-based; details: Staphylococcus aureus, ATCC6538; S. aureus ATCC 6538; 18 h, 35 °C; read-out: MIC
[17] = tested on: MRSA 573/12; assay: MIC microdilution, hospital MRSA; type: cell-based; details: Staphylococcus aureus; hospital MRSA strain 573/12; read-out: MIC
[18] = tested on: MRSE 466/11; assay: MIC microdilution, hospital MRSE; type: cell-based; details: Staphylococcus epidermidis; hospital MRSE strain 466/11; read-out: MIC
[19] = tested on: MRSA 514/11; assay: MIC microdilution, hospital MRSA; type: cell-based; details: Staphylococcus aureus; hospital MRSA strain 514/11; read-out: MIC
[20] = tested on: S. aureus ATCC 4163; assay: MIC microdilution; type: cell-based; details: Staphylococcus aureus, ATCC4163; S. aureus ATCC 4163; 18 h, 35 °C; read-out: MIC
[21] = tested on: MRSE 489/11; assay: MIC microdilution, hospital MRSE; type: cell-based; details: Staphylococcus epidermidis; hospital MRSE strain 489/11; read-out: MIC
[22] = tested on: MRSA 456/11; assay: MIC microdilution, hospital MRSA; type: cell-based; details: Staphylococcus aureus; hospital MRSA strain 456/11; read-out: MIC
[23] = tested on: S. aureus ATCC 25923; assay: Disc-diffusion (GIZ); type: cell-based; details: 18 h, 35 °C, un: unmeasurable
From the text: (§1) Microorganisms used in this study were as follows: Gram-positive cocci: S. aureus NCTC 4163, S. aureus ATCC 25923, S. aureus ATCC 6538, S. aureus ATCC 29213, S. epidermidis ATCC 12228, S. epidermidis ATCC 35984, Gram-negative rods: E. coli ATCC 10538, E. coli ATCC 25922, E. coli NCTC 8196, P. vulgaris NCTC 4635, P. aeruginosa ATCC 15442, P. aeruginosa NCTC 6749, P. aeruginosa ATCC 27863, B. bronchiseptica ATCC 4617 and yeasts: C. albicans ATCC 10231, C. albicans ATCC 90028, C. parapsilosis ATCC 22019. The other microorganisms used were obtained from the collection of the Department of Pharmaceutical Microbiology, Medical University of Warsaw, Poland.
(§2) Antibacterial activity was examined by the disc-diffusion method under standard conditions using Mueller-Hinton II agar medium (Becton Dickinson, Heidelberg, Germany) according to CLSI (previously NCCLS) guidelines. Antifungal activities were assessed using Muellere Hinton agar + 2% glucose and 0.5 mg/mL Methylene Blue Dye Medium.
(§3) Sterile filter paper discs (9 mm diameter, Whatman No. 3 chromatography paper) were dripped with tested compound solutions (in EtOH) to load […] of a given compound per disc. Dry discs were placed on the surface of appropriate agar medium. The results (diameter of the growth inhibition zone, GIZ) were read after 18 h of incubation at 35 °C.

[24] = tested on: S. aureus ATCC 4163; assay: Disc-diffusion (GIZ); type: cell-based; details: 18 h, 35 °C, un: unmeasurable
From the text: as §1, §2, §3

[25] = tested on: S. aureus ATCC 29213; assay: Disc-diffusion (GIZ); type: cell-based; details: 18 h, 35 °C, un: unmeasurable
From the text: as §1, §2, §3

[26] = tested on: S. epidermidis ATCC 12228; assay: Disc-diffusion (GIZ); type: cell-based; details: 18 h, 35 °C, un: unmeasurable
From the text: as §1, §2, §3

[27] = tested on: S. epidermidis ATCC 35984; assay: Disc-diffusion (GIZ); type: cell-based; details: 18 h, 35 °C, un: unmeasurable
From the text: as §1, §2, §3

[28] = tested on: S. aureus ATCC 6538; assay: Disc-diffusion (GIZ); type: cell-based; details: 18 h, 35 °C, un: unmeasurable
From the text: as §1, §2, §3

[29] = tested on: MRSA 585/12; assay: MIC microdilution, hospital MRSA; type: cell-based; details: Staphylococcus aureus; hospital MRSA strain 585/12; read-out: MIC

What does the source list for `O=C(O)c1cn(C2CC2)c2cc(N3CCNCC3)c(F)cc2c1=O` [ciprofloxacin, reference compound]?
MIC [1]: 16 µg/mL (≈ 48.3 µM); MIC [2]: 0.25 µg/mL (≈ 0.754 µM); MIC [3]: 32 µg/mL (≈ 96.6 µM); MIC [4]: 64 µg/mL (≈ 193 µM); MIC [5]: 64 µg/mL (≈ 193 µM); MIC [6]: 64 µg/mL (≈ 193 µM); MIC [7]: 16 µg/mL (≈ 48.3 µM); MIC [8]: 16 µg/mL (≈ 48.3 µM); MIC [9]: 0.25 µg/mL (≈ 0.754 µM); MIC [10]: 64 µg/mL (≈ 193 µM); MIC [11]: 8 µg/mL (≈ 24.1 µM); MIC [12]: 32 µg/mL (≈ 96.6 µM); MIC [13]: 0.5 µg/mL (≈ 1.51 µM); MIC (range over MRSA strains) [14]: 32 to 64 µg/mL; MIC [15]: 16 µg/mL (≈ 48.3 µM); MIC [16]: 0.25 µg/mL (≈ 0.754 µM); MIC [17]: 32 µg/mL (≈ 96.6 µM); MIC [18]: 2 µg/mL (≈ 6.04 µM); MIC [19]: 32 µg/mL (≈ 96.6 µM); MIC [20]: 0.25 µg/mL (≈ 0.754 µM); MIC [21]: 0.25 µg/mL (≈ 0.754 µM); MIC [22]: 32 µg/mL (≈ 96.6 µM); GIZ [23]: 26 mm; GIZ [24]: 26 mm; GIZ [25]: 22 mm; GIZ [26]: 30 mm; GIZ [27]: 32 mm; GIZ [28]: 28 mm; MIC [29]: 64 µg/mL (≈ 193 µM)
